Results on 1 substance are retold here after patent US20050220907A1, “Implanted medical devices with anti-inflammatory coatings” (priority 2004, published 2005).

Series [1] can be described thus: Effect of olive kernel extract on absorption of tritiated chondroitin sulfate in vivo (serum radioactivity after oral capsule). Further details: species or system male Sprague-Dawley rats. To be noted: serum radioactivity at 8 hours. Here is the method: Chondroitin sulfate was tritiated by New England Nuclear Corp. to a specific activity of 4.3 mCi/ml.
Unlabeled chondroitin sulfate was dissolved in olive kernel extract at a ratio of about 55 w/v chondroitin sulfate powder to about 450 w/v of olive kernel extract (2.9% acidity as oleic acid, 1.03% water, 0.08% hexane). To this solution was added 20.2 microcuries of the labeled chondroitin sulfate. AAA gelatin capsules were filled with the resulting solution using an aluminum template molding device.
The laboratory animals (250 g male Sprague-Dawley rats) were kept overnight without food but with free access to water. One capsule containg the above-described chondroitin sulfate-olive kernel extract solution was given to each rat per os. Control animals were given the equivalent amount of chondroitin, but without olive kernel extract. The animals were then given free access to food. Serum radioactivity was measured 8 hours thereafter in a beta scintillation counter.

The conditions of series [2]: commercially available preparations, oral; cited from earlier work.
Series [3] in a line: Chondroitin sulfate solubility in oils. To be noted: in codfish oil, corn oil and olive oil (from the flesh of the olive). It is filed as physicochemical. An excerpt:
Parallel experiments with codfish oil, corn oil and olive oil (from the flesh of the olive) were comtemplated, but chondroitin sulfate solubility in these oils was insufficient to meet the requirements of the experiment.

Regarding chondroitin sulfate, the “dose of labeled chondroitin sulfate that reached the circulation” value in series [1] (control rats, one capsule per os without olive kernel extract, n=3) is listed as “about 3.9%+/−0.4%”. For the same substance, the “dose of labeled chondroitin sulfate absorbed into the general circulation” value in series [1] (rats, one capsule per os of chondroitin sulfate dissolved in olive kernel extract, n=4) is “about 14.3%+/−0.7%”. Besides, in series [2], the “chondroitin sulfate absorbed orally” value is “less than 5%”. For the same substance, the “chondroitin sulfate solubility in oils” value in series [3] is “insufficient”.
